# Entries after “also recorded” stand apart in the source; their conditions may differ.
# Experiments:
# epileptic spasms [1] = assay: Treatment history of enrolled patients before CBD; type: in vivo, human; settings: before initiation of CBD treatment
# epileptic spasms [2] = settings: first-line treatment of epileptic spasms; cited from earlier work
# [3] = tested on: refractory epileptic spasms (ES); assay: Open label, expanded-access program: epileptic spasm frequency relative to baseline (caregiver diary); type: in vivo, human; settings: for Percent Change in Spasm Frequency, Average: average of nine patients; for Percent Change in Spasm Frequency at CBD dose, Average: average of patients
# Description: Subjects were required to be on one or more AEDs at stable doses for a minimum of two weeks prior to baseline and to have stable vagus nerve stimulation (VNS) settings and ketogenic diet ratios for a minimum of four weeks prior to baseline.
# (§1) Patients were administered botanically derived purified CBD in a 100 mg/mL sesame oil-based solution at an initial dose of five milligrams per kilogram per day (mg/kg/day) in two divided doses. Dose was then increased weekly by 5 mg/kg/day to a goal of 25 mg/kg/day.
# (§2) A maximum dose of 50 mg/kg/day could be utilised for patients who were tolerating the medication but had not achieved seizure control; these patients had further weekly titration by 5 mg/kg/day.
# There were nine patients in this study, and each received CBD for at least 12 months. Modifications were made to concomitant AEDs as per clinical indication.
# (§3) Seizure frequency, intensity, and duration were recorded by caregivers in a diary during a baseline period of at least 28 days. Changes in seizure frequency relative to baseline were calculated after 2 weeks and 1, 2, 3, 4, 6, 9 and 12 months of treatment. Epileptic spasms were counted by clusters.
# Patients were defined as responders if they had more than 50% reduction in seizure frequency compared to baseline. […] The percent change in seizure frequency was calculated as follows: […]
# The percent change reported at each time interval reflects reported seizure frequency over the past month relative to baseline. The EEG findings were correlated to the corresponding month seizure frequency change as well as the baseline seizure frequency.
# [4] = Open label, expanded-access program: caregiver logs of cognitive changes, behavioural changes and adverse events; type: in vivo, human
# Description: as §1, §2
# During subsequent follow-up visits, parents provided weekly logs regarding cognitive changes, behavioural changes, and adverse events while taking CBD. Additionally, subjects had electroencephalogram (EEG) testing prior to and after the initiation of CBD.
# [5] = tested on: other seizure types (tonic-clonic seizures); assay: Open label, expanded-access program: other seizure types; type: in vivo, human
# Description: as §1, §3
compound,measurement,setting,value
"Adrenocorticotropin hormone (SYSMEHFRWGKPVGKKRRPVKVYPNGAEDESAEAFPLEF; Corticotropin; UniProt P01189 138-176, looked up) [ACTH, preferred first-line treatment of epileptic spasms]",outcome of treatment before CBD,epileptic spasms [1],without significant benefit
same,significant risks,epileptic spasms [2],increased risk of infection
"C=C(C)[C@@H]1CCC(C)=C[C@H]1c1c(O)cc(CCCCC)cc1O [CBD, cannabidiol]",Responder rate at CBD dose,[3]; 10 mg/kg/day,66.70%
same,Responder rate at CBD dose,[3]; 20 mg/kg/day,77.80%
same,Responder rate at CBD dose,[3]; 25 mg/kg/day,66.70%
same,Responder rate at CBD dose,[3]; 35 mg/kg/day,57.10%
same,Responder rate at CBD dose,[3]; 45 mg/kg/day,80.00%
same,Responder rate at CBD dose,[3]; 50 mg/kg/day,83.30%
same,Responder Rate (percent of patients with a greater than 50% reduction in spasm frequency),[3]; 1 month of treatment,77.8%
same,Responder Rate (percent of patients with a greater than 50% reduction in spasm frequency),[3]; 2 months of treatment,66.7%
same,Responder Rate (percent of patients with a greater than 50% reduction in spasm frequency),[3]; 2 weeks of treatment,66.7%
same,Responder Rate (percent of patients with a greater than 50% reduction in spasm frequency),[3]; 3 months of treatment,55.6%
same,Responder Rate (percent of patients with a greater than 50% reduction in spasm frequency),[3]; 6 months of treatment,77.8%
same,Responder Rate (percent of patients with a greater than 50% reduction in spasm frequency),[3]; 9 months of treatment,77.8%
same,Responder Rate (percent of patients with a greater than 50% reduction in spasm frequency),[3]; 12 months of treatment,77.8%
same,patients spasm-free,"[3]; after 12 months of treatment, five of nine patients",55.6%
same,patients epileptic spasm-free,[3]; after one month of CBD treatment,One patient was epileptic spasm-free
same,patients epileptic spasm-free,[3]; after two months of CBD treatment,two other patients were epileptic spasm-free
same,"Percent Change in Spasm Frequency, Average",[3]; 1 month,−67.20%
same,"Percent Change in Spasm Frequency, Average",[3]; 2 months,−64.10%
same,"Percent Change in Spasm Frequency, Average",[3]; 2 weeks,−67.50%
same,"Percent Change in Spasm Frequency, Average",[3]; 3 months,−59.00%
same,"Percent Change in Spasm Frequency, Average",[3]; 6 months,−73.70%
same,"Percent Change in Spasm Frequency, Average",[3]; 9 months,−61.53%
same,"Percent Change in Spasm Frequency, Average",[3]; 12 months,−51.35%
same,"Percent Change in Spasm Frequency at CBD dose, Average",[3]; 10 mg/kg/day,−67.50%
same,"Percent Change in Spasm Frequency at CBD dose, Average",[3]; 20 mg/kg/day,−67.20%
same,"Percent Change in Spasm Frequency at CBD dose, Average",[3]; 25 mg/kg/day,−61.40%
same,"Percent Change in Spasm Frequency at CBD dose, Average",[3]; 35 mg/kg/day,−56.00%
same,"Percent Change in Spasm Frequency at CBD dose, Average",[3]; 45 mg/kg/day,−80.90%
same,"Percent Change in Spasm Frequency at CBD dose, Average",[3]; 50 mg/kg/day,−50.20%
same,effect on number of epileptic spasms (in words),"[3]; overall conclusion of the program, adjunctive to AEDs",significantly reduce the number of epileptic spasms; also recorded: significant reduction in epileptic spasms
same,seizure freedom in patients suffering from TSC,"[3]; patients 6, 7 and 8, after 12 months of treatment",all three were completely seizure free
same,"patients with caregiver-reported sustained improvements in alertness, verbal capacity and communications, cognitive availability, initiation of emotional and physical connections",[4]; four of nine patients,44%
same,adverse event leading to dose reduction,"[4]; patients 3 and 6 at 45 mg/kg/day and 50 mg/kg/day, reduced to 35 mg/kg/day",diarrhoea
same,improvement in cognitive and behavioural domains (in words),[4]; treatment group of the program,significant improvement in cognitive and behavioural domains
same,freedom from tonic-clonic seizures,[5]; after starting CBD treatment,one patient became seizure free of tonic-clonic seizures
same,frequency of other seizure types,[5]; other seizure types experienced by the patients,effective in reducing the frequency of other seizure types
"C=CC(N)CCC(=O)O (stereo not shown) [VGB, vigabatrin]",outcome of treatment before CBD,epileptic spasms [1],lack of efficacy
same,significant risks,epileptic spasms [2],visual field defects

# Source: patent US20220257529A1, “USE OF C[…] THE TREATMENT OF […] SPASMS” (GW Research Limited, priority 2019, published 2022)
